Experimental data published in patent publication USRE49351E1, “Cytoprotective agent” (Biogen MA Inc., priority 2009, dated 2023).
Marks after values point to notes of the source that are not given here.

Assays:
Assay type in all cases: in vivo
[1] = tested on: mouse cerebral infarction model; assay: Mouse cerebral infarction model: infarction area percentage, neurological symptom, edema percentage; conditions: evaluated 24 h, mean ± SE, n=6
Excerpt: Using male ddY line mouse (body weight 35 to 45 g), a cerebral infarction model was produced and evaluated about neurological symptoms and the infarction area percentage according to methods similar to the production method and the evaluation method for the Mongolian gerbil cerebral infarction model.
The improvement effectiveness of SMTP-7 and alteplase on the infarction area percentage, the neurological symptom and the edema percentage was compared using the mouse cerebral infarction model. At the same time the dose dependence of the degree of improvement of SMTP-7 was investigated.
SMTP-7 and alteplase were prepared as in Example 2. Ten mg/kg each was administered into the femoral vein 1 hour or 3 hours after the initiation of ischemia in a mouse cerebral infarction model, wherein 10% was administered by a bolus administration, and the rest by continuous administration over 30 min. Further, 0.1 mg/kg or 1 mg/kg of SMTP-7 was administered into the femoral vein 1 hour after the initiation of ischemia in a mouse cerebral infarction model, wherein 10% was administered by a bolus administration, and the rest by continuous administration over 30 min. Six mice were used for each condition.
Twenty four hours after the initiation of the operation neurological symptom of each mouse was examined to rate the neurological symptom. Then the brain of each mouse was extirpated and the infarction area was measured and the infarction area percentage was determined. The edema percentage was determined according to the following formula: Edema percentage (%)=(Volume of the cerebral hemisphere affected by ischemia−Volume of the other side cerebral hemisphere)/Volume of the other side cerebral hemisphere×100 […]

IL-1β = assay: Real time RT-PCR of inflammation parameter IL-1β in brain of mouse cerebral infarction model; conditions: 10 mg/kg, ipsilesional (right) brain at 24 h, mean ± SE, n=6
Protocol: (§1) Using the Mouse Cerebral Infarction model changes of parameters related to inflammation among the triprenyl phenol compound (10 mg/kg) administration groups, the alteplase (10 mg/kg) administration groups, and the alteplase (10 mg/kg) and aspirin (10 mg/kg) combined administration group were evaluated by a real time RT-PCR method. As the parameters IL-1β, TNF-α nd IL-6 were selected, which were typical parameters related to inflammation.
(§2) The administrations of SMTP-7 (10 mg/kg) and alteplase (10 mg/kg) were initiated 1 hour or 3 hours after the initiation of ischemia. The administration method was same as Example 3.
(§3) The combined administration of alteplase (10 mg/kg) and aspirin (10 mg/kg) was initiated 3 hours after the initiation of ischemia. Alteplase was administered same as in Example 3, and aspirin was administered by a bolus intravenous injection into the femoral vein.
(§4) The administrations of SMTP-6, SMTP-22, SMTP-25, SMTP-43 and SMTP-44D were initiated 1 hour after the initiation of ischemia. The administration method was same as Example 5.
(§5) After 24 hours of the initiation of the operation, a Krebs-HEPES buffer was perfused from the heart and then the brain was extirpated.
(§6) After preparing brain slices, the fourth slice was divided to the left brain and the right brain, and homogenized respectively with 1 mL of TRIZOL (registered trademark) reagent (Invitrogen). After incubating at room temperature for 5 min, adding chloroform (0.2 mL), and mixing for 15 sec, incubation was carried out at room temperature for 3 min. The samples were centrifuged at 4° C. for 15 min at 12,000×g.
(§7) Since RNA moved to a water layer, the water layer was collected and, after addition of 0.5 mL of isopropyl alcohol, followed by incubation at room temperature for 10 min, centrifuged at 4° C. for 10 min at 12,000×g. Since a pellet was formed in a tube after the centrifugation, the supernatant was removed, and 1 mL of 75% ethanol was added followed by stirring to wash the pellet. The mixture was then centrifuged at 4° C. for 5 min at 7,500×g. After removing again the supernatant, being left for natural drying for 8 min, the pellet containing the RNA was dissolved in 100 μL of RNase-free water. cDNA was produced by reverse transcription of the RNA using a SuperScript (registered trademark) VILOTM cDNA Synthesis Kit (Invitrogen) by a Thermal Cycler 2720 (Applied Biosystems). More particularly, 4 μL of 5×VILOTM Reaction Mix, 2 μL of 10× SuperScript (registered trademark) Enzyme Mix, and 1 μg of each RNA were mixed and diluted to 20 μL with RNase-free water.
(§8) Reverse transcription was conducted using the above samples under the following conditions. After reacting at 25° C. for 10 min, at 42° C. for 60 min, and at 85° C. for 5 min, the product was stored at 4° C. With the cDNA as a template real time RT-PCR was carried out by ABI PRISM 7000 using SYBR (registered trademark) GreenERTM qPCR SuperMix for ABI PRISM (registered trademark; Invitrogen). […]
(§9) Real time RT-PCR was conducted using the above samples under the following conditions. […] Changes of the respective parameters were determined by a calibration curve method. β-actin was measured as an internal control, and the respective parameters were calculated as a relative value based on the β-actin. […]

TNF-α = assay: Real time RT-PCR of inflammation parameter TNF-α in brain of mouse cerebral infarction model; conditions: 10 mg/kg, ipsilesional (right) brain at 24 h, mean ± SE, n=6
Protocol: as §1, §2, §3, §4, §5, §6, §7, §8, §9

IL-6 = assay: Real time RT-PCR of inflammation parameter IL-6 in brain of mouse cerebral infarction model; conditions: 10 mg/kg, ipsilesional (right) brain at 24 h, mean ± SE, n=6
Protocol: as §1, §2, §3, §4, §5, §6, §7, §8, §9

[2] = 0.1 mg/kg femoral vein, administration 1 hour after ischemia
[3] = 1 mg/kg femoral vein, administration 1 hour after ischemia
[4] = 10 mg/kg femoral vein, administration initiated 1 hr after ischemia
[5] = 10 mg/kg femoral vein, administration initiated 3 hr after ischemia
[6] = administration initiated 1 hr after ischemia
[7] = administration initiated 3 hr after ischemia

Molecule	Edema percentage [1, 2]	Infarction area [1, 2]	Neurological scores [1, 2]	Edema percentage [1, 3]	Infarction area [1, 3]	Neurological scores [1, 3]	Edema percentage [1, 4]	Infarction area [1, 4]	Neurological scores [1, 4]	Edema percentage [1, 5]	Infarction area [1, 5]	Neurological scores [1, 5]	IL-1β, relative value to β-actin (IL-1β; [6])	IL-1β, relative value to β-actin (IL-1β; [7])	TNF-α, relative value to β-actin (TNF-α; [6])	TNF-α, relative value to β-actin (TNF-α; [7])	IL-6, relative value to β-actin (IL-6; [6])	IL-6, relative value to β-actin (IL-6; [7])
CC(C)=CCC/C(C)=C/CC[C@@]1(C)Oc2c(c(O)cc3c2CN(CCC[C@@H](C(=O)O)N2Cc4c(cc(O)c5c4O[C@](C)(CC/C=C(\C)CCC=C(C)C)[C@@H](O)C5)C2=O)C3=O)C[C@@H]1O [SMTP-7]	10.15 ± 1.817%	10.08 ± 2.07%	2.5 ± 0.5	8.81 ± 2.292%	6.66 ± 0.71 %	2 ± 0.632	5.81 ± 0.967 %	4.87 ± 1.06 %	1.67 ± 0.422	6.23 ± 1.07 %	5.05 ± 0.576 %	1.33 ± 0.558	0.0314 ± 0.0171	0.0728 ± 0.0380	0.151 ± 0.0313	0.147 ± 0.0293	0.0356 ± 0.0138	0.0651 ± 0.0308
CC(C)=CCC/C(C)=C/CCC1(C)Oc2c(c(O)cc3c2CN(C(Cc2c[nH]c4ccccc24)C(=O)O)C3=O)CC1O (stereo not drawn) [SMTP-6]	–	–	–	–	–	–	9.80 ± 2.74%	9.81 ± 1.43%	3 ± 0.447	–	–	–	0.165 ± 0.0930	–	0.261 ± 0.119	–	0.220 ± 0.0850	–
alteplase [reference compound]	–	–	–	–	–	–	3.63 ± 2.67 %	6.15 ± 1.94 %	1.17 ± 0.749	12.6 ± 1.84%	11.9 ± 2.26%	2.50 ± 0.500	0.0408 ± 0.0173	0.347 ± 0.172**^,##	0.164 ± 0.0332	0.381 ± 0.155	0.0582 ± 0.0254	0.341 ± 0.138**^,#
